Data as given in patent US20230321082A1, “USE OF TRIAZOLE ANALOGUES FOR INHIBITION OF A TRIPARTITE VOR PROTEIN COMPLEX IN MULTICELLULAR ORGANISMS” (TECHNISCHE UNIVERSITÄT DRESDEN, priority 2020, published 2023).

Tests used:
[1] = system: host cells; assay: NEI-associated late endosomes and nuclear transfer of EV-derived components after importazole treatment; assay type: cell-based
From the text: Referring to FIGS. 1A, 1B and 1C, illustrate data showing the localization and tripartite structure of a VOR complex. […] Typically, EVs are transported to late endosomes after their endocytosis, wherein the EVs facilitate intercellular communication in diverse cellular processes.

[2] = system: HIV-1 integrase in HeLa cells; assay: Transport of HIV-1 integrase into the nucleoplasmic reticulum (IN-2 immunolabelling); assay type: cell-based; conditions: 10 μM, 30 minutes pretreatment, HIV-Gag-iGFP infection 1 hour
Description: (A) HeLa cells were pretreated with 10 μM of drugs as indicated for 30 minutes before HIV-Gag-iGFP infection for 1 hour in the presence of drugs. As controls, DMSO was used (DMSO, HIV-infected cells; control, uninfected cells). Cells were fixed and processed for double immunolabelling for VAP-A and HIV IN (IN-2). […] (B) HeLa cells expressing Rab7-RFP were treated as in panel A, and then double immunolabelled for SUN2 and IN-2. Scale bars, 10 (A) and 5 (B) μm.
Referring to FIG. 19A, B illustrates the quantification of IN-2 immunoreactivity in SUN2^+ NEI (A, 50 NEIs were assessed per experiment, n=3, individual values of each experiment is indicated) and the IN-2 nucleoplasm/cytoplasm ratio per cell (B, n=150 cells from three independent experiments) on HeLa cells treated with drugs as indicated (see FIG. 18B). Means±S.D. with individual values for each experiment (A) are shown. N.s., not significant; ***, p<0.001.

[3] = system: primary mesenchymal stromal cells; assay: MTS cell viability, primary mesenchymal stromal cells; assay type: cell-based; conditions: 10 μM, 24, 48 and 72 hours
Description: (§1) Referring to FIG. 11, illustrates that triazole analogues were not toxic for cells. Cancer SW480 cells (left panel) and primary mesenchymal stromal cells (right panel) were incubated with DMSO solvent alone (control), 10 μM ICZ, compound 5, compound 3 or ketoconazole (KCZ) for 24, 48 and 72 hours as indicated. At the end of each time point, MTS tetrazolium compound (3-(4,5-dimethylthiazol-2-yl)-5-(3-carboxymethoxyphenyl)-2-(4-sulfophenyl)-2H-tetrazolium) was added for 1 hour to evaluate the amounts of viable cells. The absorbance value was measured at 490 nm. The mean±S.D. are shown (n=6). **, p<0.01.

[4] = system: Cancer SW480 cells; assay: MTS cell viability, SW480 cells; assay type: cell-based; conditions: 10 μM, 24, 48 and 72 hours
Description: as §1

[5] = target: T1, tripartite VAP-A, ORP3 and Rab7 (VOR) protein complex (Homo sapiens, UniProt Q9H4L5); assay: VOR complex integrity in whole SW480 cells (anti-ORP3 immunoisolation, Rab7 co-immunoisolation); assay type: cell-based; conditions: 10 μM, 5 hours
T1 construct: solubilized and subjected to immunoisolation (IS) using anti-ORP3 Ab followed by Protein G-coupled magnetic beads; endogenous in cells; host or cells: SW480 cells
T1 sequence (Q9H4L5 1-887): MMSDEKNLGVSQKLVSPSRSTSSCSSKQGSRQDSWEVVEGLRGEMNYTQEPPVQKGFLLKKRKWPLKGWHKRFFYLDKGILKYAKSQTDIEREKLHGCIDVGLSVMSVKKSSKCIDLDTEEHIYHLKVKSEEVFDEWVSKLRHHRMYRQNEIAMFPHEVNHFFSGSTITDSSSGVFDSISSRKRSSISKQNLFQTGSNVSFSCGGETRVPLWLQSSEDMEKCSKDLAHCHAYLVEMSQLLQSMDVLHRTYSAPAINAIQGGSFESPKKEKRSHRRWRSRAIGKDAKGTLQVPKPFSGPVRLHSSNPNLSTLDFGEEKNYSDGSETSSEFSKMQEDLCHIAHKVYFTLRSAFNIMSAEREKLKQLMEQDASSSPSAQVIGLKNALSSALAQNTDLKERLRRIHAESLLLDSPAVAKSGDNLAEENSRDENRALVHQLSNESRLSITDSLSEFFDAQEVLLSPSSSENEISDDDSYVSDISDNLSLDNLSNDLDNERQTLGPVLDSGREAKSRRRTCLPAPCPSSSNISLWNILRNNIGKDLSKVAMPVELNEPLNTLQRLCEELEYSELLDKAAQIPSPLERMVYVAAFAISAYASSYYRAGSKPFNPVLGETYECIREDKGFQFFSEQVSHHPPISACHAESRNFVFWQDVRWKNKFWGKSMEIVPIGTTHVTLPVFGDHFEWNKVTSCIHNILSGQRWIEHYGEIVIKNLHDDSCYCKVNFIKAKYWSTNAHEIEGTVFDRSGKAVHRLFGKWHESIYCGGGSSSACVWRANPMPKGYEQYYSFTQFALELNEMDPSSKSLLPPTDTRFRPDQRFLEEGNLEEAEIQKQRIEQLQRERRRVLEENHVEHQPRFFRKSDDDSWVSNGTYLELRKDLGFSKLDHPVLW
T1 sequence (Q9P0L0 1-249 partner): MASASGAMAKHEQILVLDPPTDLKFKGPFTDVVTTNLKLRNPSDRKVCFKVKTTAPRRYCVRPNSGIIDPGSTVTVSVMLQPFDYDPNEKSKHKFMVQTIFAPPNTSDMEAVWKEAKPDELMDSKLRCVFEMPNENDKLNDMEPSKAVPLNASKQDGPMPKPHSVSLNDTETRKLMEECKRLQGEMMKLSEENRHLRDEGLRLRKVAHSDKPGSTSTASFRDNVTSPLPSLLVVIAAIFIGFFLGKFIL
Description: SW480 cells were incubated with DMSO solvent alone (control), 10 μM ICZ, triazole compound 5, compound 3 or ketoconazole for 5 hours, solubilized and subjected to immunoisolation (IS) using anti-ORP3 Ab followed by Protein G-coupled magnetic beads. The input (1/50, for Rab7 only) and entire bound fractions were probed by immunoblotting for ORP3, VAP-A and Rab7. The Rab7/VAP-A ratios were quantified (n=3). The mean±S.D. are shown. P values are indicated.

[6] = target: T1, tripartite VAP-A, ORP3 and Rab7 (VOR) protein complex; assay: VOR complex integrity in detergent SW480 cell lysates (anti-ORP3 immunoisolation, Rab7 co-immunoisolation); assay type: biochemical; conditions: 10 μM, 30 minutes on ice
Description: Detergent SW480 cell lysates were incubated with DMSO solvent alone (control), 10 μM ICZ, triazole compound 5, compound 3 or ketoconazole for 30 minutes on ice, and then subjected to immunoisolation (IS) using anti-ORP3 Ab followed by Protein G-coupled magnetic beads. The input (1/50, for Rab7 only) and entire bound fractions were probed by immunoblotting for ORP3, VAP-A and Rab7. The Rab7/VAP-A ratios were quantified (n=3). The mean±S.D. are shown. P values are indicated. […] Referring to FIGS. 12A, 12B, 12C and 12D illustrate the effects of various triazole compounds on the VOR complex integrity. Detergent SW480 cell lysates were incubated with DMSO solvent alone (control), 2.5 μM (FIG. 12A), 5 μM (FIG. 12B), 7.5 μM (FIG. 12C) or 10 μM (FIG. 12D) ICZ and triazole compounds for 30 minutes on ice and then subjected to immunoisolation (IS) using anti-ORP3 Ab followed by Protein G-coupled magnetic beads. The entire bound fractions were probed by immunoblotting for ORP3, VAP-A and Rab7 (data not shown). The percent inhibition of Rab7 expression were quantified and compared to the control sample (dashed line).

[7] = system: SW480 cells; assay: EV-induced pro-metastatic morphological transformation; assay type: cell-based; conditions: 10 μM, 10 minutes pre-treatment, EVs 1×10^9 particles/ml, 5 hours
Description: Referring to FIG. 9, illustrates that the triazole compound 5 inhibited EV-induced pro-metastatic morphological transformation. SW480 cells were pre-treated with DMSO solvent alone (control), 10 μM ICZ, triazole compound 5 or compound 3 for 10 minutes prior to incubation without or with EVs (1×10^9 particles/ml) derived from metastatic SW620 cells for 5 hours. Cell morphology was analyzed by confocal laser scanning microscopy upon CD9 immunolabelling (data not shown). Bar graphs show the percentage of cells harboring a rounded (left panel) or blebbed (right panel) morphology upon exposure to EVs. The mean±S.D. are shown. At least 50 cells were evaluated per condition and independent experiment (n=6).

[8] = system: SW480 cells; assay: Scratch wound healing assay, EV-induced migration; assay type: cell-based; conditions: 10 μM, EVs from SW620 cells 7.5×10^8 particles/ml, 5 hours
Description: Referring to FIG. 16, illustrates images of the scratch wound healing assay of SW480 cells treated with 10 μM drugs (ICZ, compound 5) without or with EVs (7.5×10^8 particles/ml) derived from SW620 cells for 5 hours (upper panels). The mean±S.E.M. (n=2 independent experiments) is presented (lower panel).

[9] = system: SW480 cells; assay: Nuclear transfer of EV cargo (CD9-GFP); assay type: cell-based; conditions: 10 μM, 10 minutes pre-treatment, 5-hour incubation with EVs
Description: SW480 cells were pre-treated for 10 minutes with DMSO (control), 10 μM ICZ, triazole compound 5, triazole compound 3 or ketoconazole (KCZ) prior to 5-hour incubation with melanoma cell-derived CD9-green fluorescent protein (GFP)^+ EVs in the absence or presence of drugs. Recipient cells were then fixed and immunolabelled for the nuclear membrane protein SUN2. The amounts of EV-derived CD9-GFP in the nuclear compartments were analyzed by confocal laser scanning microscopy and quantified using Fiji software. Nuclear CD9-GFP was evaluated from 50 cells per condition and a representative experiment with mean±S.D. are shown. P values are indicated. N.s., not significant.

[10] = system: SW480 cells; assay: Entry of Rab7+ late endosomes in SUN2+ NEI, confocal microscopy; assay type: cell-based; conditions: 10 μM, 5 hours
Description: Referring to FIG. 8, illustrates that the triazole compound 5 inhibited the entry of Rab7^+ late endosomes in NEI. SW480 cells were incubated with DMSO (control), 10 μM ICZ, triazole compound 5, triazole compound 3 or ketoconazole (KCZ) for 5 hours prior to double immunolabelling for Rab7 and nuclear membrane protein SUN2 and the staining with cholesterol-binding compound filipin. Cells were analyzed by confocal laser scanning microscopy (left panel). Arrows indicate SUN2^+ NEI and arrowheads point to Rab7 and filipin-labelled cholesterol therein. […] The mean±S.D. are shown. P values are indicated. N.s., not significant. Scale bars, 5 μm.

[11] = system: HIV-Gag-iGFP infection of HeLa cells; assay: HIV-1 productive infection (HIV-Gag-iGFP expression); assay type: cell-based; conditions: 10 μM pretreatment, infection 6 hours, then 24 hours in presence of drugs
Description: Referring to FIG. 20A-C, illustrates the impact of drugs on productive infection. HeLa cells pretreated with drugs as above before HIV-Gag-iGFP infection for 6 hours, washed, and incubated for 24 hours in the presence of drugs. Samples were processed either for immunocytochemistry or flow cytometry analyses. DMSO was used as solvent vehicle. […] Dashed line represents DMSO-treated, noninfected cells as a negative control. […] The percentage of GFP^+ cells as assessed by flow cytometry is plotted (C). Means±S.D. with individual values for each experiment are shown. Cy, cytoplasm; Pm, plasma membrane; n.s., not significant; ***, p<0.001.

Row | Structure (SMILES) | NEI-associated late endosomes [1] | transfer of EV-derived components into the nucleoplasm of host cells [1] | transport of HIV-1 integrase into the nucleoplasmic reticulum (IN-2 immunoreactivity in NEI) [2] | toxicity for cells (MTS, viable cells) [3] | toxicity for cells (MTS, viable cells) [4] | co-immunoisolation of Rab7 with ORP3 (Rab7/VAP-A ratio) [5] | co-immunoisolation of Rab7 with ORP3 (Rab7/VAP-A ratio) [6] | morphological transformation (rounded or blebbed) induced by EVs from metastatic SW620 cells [7] | migration of SW480 cells induced by EVs [8] | nuclear transfer of EV cargo (EV-derived CD9-GFP in nuclear compartments) [9] | Rab7 and cholesterol in SUN2+ NEI [10] | entry of Rab7+ late endosomes in NEI [10] | Gag-iGFP expression (productive infection) [11]
1 | CC(Nc1nc(N2CCCC2)nc2ccccc12)c1ccccc1 (centres unmarked) [importazole] | lack of the NEI-associated late endosomes | inhibition of transfer | – | – | – | – | – | – | – | – | – | – | –
2 | O=c1[nH]ncn1-c1ccc(Cl)cc1 [compound 3, 4-(4-Chlorophenyl)-2,4-dihydro-3H-1,2,4-triazol-3-one] | – | – | detected in NEI | not toxic | not toxic | do not | do not | – | – | – | – | – | –
3 | CC(=O)N1CCN(c2ccc(OCC3COC(Cn4ccnc4)(c4ccc(Cl)cc4Cl)O3)cc2)CC1 (centres unmarked) [ketoconazole, reference compound] | – | – | – | – | – | do not | do not | – | – | – | – | – | –
4 | CCC(C)n1ncn(-c2ccc(Cl)cc2)c1=O (centres unmarked) [compound 5, 2-(butan-2-yl)-4-(4-chlorophenyl)-2,4-dihydro-3H-1,2,4-triazol-3-one] | – | – | inhibit the transport of HIV-1 integrase into the nucleoplasmic reticulum | not toxic | not toxic | inhibit the co-immunoisolation of Rab7 | inhibits the co-immunoisolation of Rab7 | inhibited the morphological transformation | inhibit the migration | inhibited the nuclear transfer of EV cargo | absence of Rab7 and cholesterol | inhibited | reduction in Gag-iGFP expression
